Reference: article PMC5321741, “Arylmethylamino steroids as antiparasitic agents” (Nature Communications, 2017)
“And” between values parts separate entries of the source, which are not always exact repeats. Identical values can stand only once. Counter-ions that a name gives are not always drawn. Like-named read-outs stand apart in the source and are kept apart here. One block for each molecule: values may come before it.

Key:
HUVEC = test: antiproliferative activity on HUVEC cells; type: cell-based; conditions: Homo sapiens, HUVEC, 72 h
Experimental: (§1) Compounds were tested for their antiproliferative activity on HUVEC and K-562 cells and for cytotoxicity on HeLa cells using standard protocols. K-562 (DSM ACC 10), HUVEC (ATCC CRL-1730), and HeLa (DSM ACC 57) cells were cultured as described previously. To assay the antiproliferative and cytotoxic effect, procedures were carried out as described before. In brief, for each experiment with K-562 and HeLa ∼10,000 cells were seeded per well of the 96-well microplates. For the cytotoxicity assay, the HeLa cells were preincubated for 48 h without the test substances. Cells were incubated for 72 h at 37 °C in a humidified atmosphere and 5% CO2. Suspension cultures of K-562 in microplates were analysed by an electronic cell analyzer system CASY 1 (SCHÄRFE, Reutlingen, Germany). The monolayer of the HUVEC and HeLa cells were fixed by glutaraldehyde (MERCK) and stained with a 0.05% solution of methylene blue (SERVA). After gently washing, the stain was eluted by 0.2 ml of 0.33 N HCl in the wells. The optical densities were measured at 660 nm in a microplate reader. The calculations of the different values of GI50 and CC50 were performed with the software Magellan (TECAN).

[1] = cytotoxicity on HeLa cells; type: cell-based; conditions: human, HeLa cells
Experimental: as §1

K-562 = test: antiproliferative activity on K-562 cells; type: cell-based; conditions: Homo sapiens, K562, 72 h
Experimental: as §1

[2] = tested on: P. berghei GFP ANKA malaria strain; test: P. berghei mouse model (Peter's test); type: in vivo, Plasmodium berghei in NMRI mice; conditions: for % activity (reduction of parasitaemia) / % of control / Parasitized RBC over 100, Average / Parasitized RBC over 100, individual mice M1-M3: day 4
Experimental: The animal experiments described here were performed at the Swiss Tropical and Public Health Institute (Swiss TPH, Basel, Switzerland), they were approved by the Swiss Cantonal Authorities (‘Kantonales Veterinäramt Basel Stadt') adhering to local and national regulations of laboratory animal welfare in Switzerland. The best compounds were tested in the murine P. berghei model essentially as described. The infection was initiated at day 0 with the P. berghei GFP ANKA malaria strain (donation from AP Waters and CJ Janse, Leiden University). From donor mice (female NMRI mice, 18–20 grams (about 3 weeks) from Charles River Germany) with ∼30% parasitaemia, heparinized blood was taken and diluted in physiological saline to 10^8 parasitized erythrocytes/ml. An aliquot (0.2 ml) of this suspension was injected intravenously into experimental and control groups of mice (female NMRI mice, 18–20 grams (about 3 weeks) from Charles River Germany). Usually, in untreated control mice parasitaemia rose regularly to ∼30% by day 3 post-infection. Control mice died between days 6 and 7 post infection. In the experiments described here, however, control animals (n=5) were killed on day 4 post infection for ethical reasons.
The steroid compounds were prepared at an appropriate concentration as a solution/suspension in Tween 80/alcohol (7:3, Tween 80 and absolute ethanol, respectively), followed by a 10x dilution in water. […] The route of administration was i.p., p.o., s.c. in a volume of 10 ml kg^−1.
The degree of infection (parasitaemia expressed in % of infected erythrocytes) was determined by FACS analysis on day 4 (96 h post infection). The difference of the mean infection rate of the control group (=100%) to the test group was calculated and expressed as a percent reduction. For example, activity determination with a mean of 2% parasitaemia in treated mice and a mean of 40% parasitaemia in the control animals is calculated as follows: (40−2%)/40% × 100=95% activity. The survival time in days was recorded up to 30 days after infection. A compound was considered curative if the animal survived to day 30 after infection with no detectable parasites (confirmed by light microscopy).

[3] = tested on: adult Schistosoma mansoni; test: schistosome in vitro culture with inhibitor treatment; type: cell-based
[4] = tested on: P. falciparum (strain 3D7); test: 72 h 3H-hypoxanthine incorporation assay, asexual blood stages; type: cell-based, Plasmodium falciparum; conditions: Plasmodium falciparum
P. falciparum NF54 = test: IC50 speed assay; type: cell-based, Plasmodium falciparum; conditions: for IC50: Plasmodium falciparum, mean±s.d., three biological replicates
Experimental: To assess the rapidity of growth inhibition induced by the steroid compounds, the so-called IC50 speed assay[16] was conducted for compound 1o on P. falciparum NF54 (Fig. 2a,b).

[5] = tested on: P. falciparum (strain 3D7); conditions: read-out: IC50 of mefloquine; cited from earlier work
[6] = tested on: hGrx1-roGFP2 in P. falciparum 3D7; test: cytosolic glutathione redox sensor in parasites; type: cell-based, Plasmodium falciparum; conditions: 100 nM, 24 h
Experimental: To further study the mechanism of action of the steroid compounds and evaluate the potential involvement of redox stress, compound 1o was tested in cell culture on the chloroquine-sensitive P. falciparum 3D7 strain expressing the cytosolic glutathione redox sensor hGrx1-roGFP2 (Supplementary Note 2). […]
signals at 405/475 nm were calculated and plotted against time and/or concentration of compound 1o or redox active compounds. Data from three independent experiments were […]
100 µM for 4 h and 24 h incubations. Transfection of the Pf3D7 strain with the redox sensor was carried out, and the parasites were cultured as described under constant drug pressure with 5 nM WR99210 (Jacobus Pharmaceuticals, New Jersey, USA).45,46 P. falciparum trophozoites were enriched via magnet separation.47 Parasitemia was counted by using Giemsa-stained blood smears. The IC50 of compound 1o on P. falciparum 3D7 asexual blood stages was verified to be about 5 nM in an additional 72 h [3H] incorporation assay45 directly before the experiment. The effect of compound 1o on P. falciparum was investigated in 4 h and 24 h incubations. For 4 h experiments, trophozoite stage parasites (26-30 h post invasion) of 3D7[hGrx1-roGFP2] (6-8% parasitemia) were magnetically enriched (Miltenyi Biotec, Germany), counted by using the improved Neubauer hemocytometer (Brand GmbH, Germany), and returned to cell culture (at 0.5 x 10^6 trophozoites/µl) for at least 1 h to recover.
1.0 x 10^6 cells in 100 µl cell culture medium were placed into LoBind tubes (Eppendorf) for 4 h incubation experiments. The parasites were treated with compound 1o at 50 x, and 100 x IC and with mefloquine (MQ) as a standard antimalarial drug at 1 µM (IC = 8 nM)45 for 4 h […]
for 15 min at 37 °C. For 24 h experiments, a 5 ml culture (6-8% parasitemia) of ring stage parasites (6-10 h post invasion) was treated with compound 1o at 4 x, 10 x, 20 x IC50 and with 100 nM MQ. Prior to enrichment, cysteines were blocked with 2 mM NEM. For 4 h and 24 h experiments, cells were washed after incubation with pre-warmed Ringer’s solution […]
Hepes, 1 mM NaH2PO4, pH 7.4) and were seeded onto poly-L-lysine-coated µ-slides VI (Ibidi, Martinsried, Germany). A Leica confocal system TCS SP5 inverted microscope equipped with the objective HCX PL APO 63.0x1.30 GLYC 37 °C UV connected to a 37 °C temperature chamber was used. The argon laser power was set to 20%; scanning was performed at 400 Hz frequency and at a 512 × 512 pixel resolution. The smart gain and […]
smart offset were 950 V and -0.9%, respectively. With a sequential scan, we excited the sensor at 405 nm and at 488 nm and detected emissions at 500-550 nm. Laser intensity for both lines was adjusted to match the full dynamic range of the probe to the dynamic range of the detector (405 nm: 12%, 488 nm: 4%). Autofluorescence images were simultaneously taken at ex 405 nm / em 430-450 nm and individually defined together with the background for every image, but no fluorescence signal could be detected. All experiments included non- […]
and 10 mM DTT (2 min incubation), respectively, prior to blocking with NEM. Only parasites showing fluorescent signals at both 405 and 488 nm excitation and an intact host cell were chosen for analysis. Each experiment was carried out three times. At least 10 parasites were analyzed, resulting in at least 30 experimental values per incubation. The Leica LAS AF Lite software for fluorescence analysis was used. The 405/488 nm ratio was calculated. The obtained ratio values were normalized to the control ratio value, which was set to 100. The graphs were plotted using the GraphPad Prism 5 software (San Diego, CA, USA). One way-ANOVA test with 95% confidence intervals with the Dunnett’s Multiple Comparison Test was applied for statistical analysis of significance (*, p < 0.05; **, p < 0.01; ***, p < 0.001). […]
with 1 µM MQ. 24 h incubation (Supplementary Figure 8 panel B) with compound 1o resulted in a higher increase of the fluorescence ratio in a concentration-dependent manner. […]

[7] = NF54, read-out: IC50 24 h, 24 h compound incubation
[8] = NF54, 48 h compound incubation, read-out: IC50 48 h
[9] = NF54, 72 h compound incubation, read-out: IC50 72 h

SMILES: Oc1ccccc1CNc1ccccc1 (as salt: perchlorate) [19c]
- melting point: 183 to 186 °C

SMILES: COc1ccc2c(c1)CCC1C2CC[C@@]2(C)C1CC[C@H]2NCc1ccccc1O (some centres unmarked) [1c]
- GI50 (HUVEC): 17100 nM
- CC50 at 72 h [1]: > 128000 nM
- GI50 (K-562): 5900 nM
- Mouse survival in days, Average ([2]; 3x 10 mg/kg p.o.): 9 days
- Mouse survival in days, individual mice M1-M3 ([2]; 3x 10 mg/kg p.o.): 8 days and 11 days and 7 days
- % activity (reduction of parasitaemia) ([2]; 3x 10 mg/kg p.o.): 47%
- % of control ([2]; 3x 10 mg/kg p.o.): 53%
- Parasitized RBC over 100, Average ([2]; 3x 10 mg/kg p.o.): 36
- Parasitized RBC over 100, individual mice M1-M3 ([2]; 3x 10 mg/kg p.o.): 28 and 26 and 53
- Mouse survival in days, Average ([2]; 3x 10 mg/kg s.c.): 7 days
- Mouse survival in days, individual mice M1-M3 ([2]; 3x 10 mg/kg s.c.): 7 days and 6 days and 8 days
- % activity (reduction of parasitaemia) ([2]; 3x 10 mg/kg s.c.): < 40%
- % of control ([2]; 3x 10 mg/kg s.c.): 83%
- Parasitized RBC over 100, Average ([2]; 3x 10 mg/kg s.c.): 56
- Parasitized RBC over 100, individual mice M1-M3 ([2]; 3x 10 mg/kg s.c.): 57 and 68 and 42
- Mouse survival in days, Average ([2]; 3x 30 mg/kg p.o.): 13 days
- Mouse survival in days, individual mice M1-M3 ([2]; 3x 30 mg/kg p.o.): 13 days and 12 days and 14 days
- % activity (reduction of parasitaemia) ([2]; 3x 30 mg/kg p.o.): 99.4%
- % of control ([2]; 3x 30 mg/kg p.o.): 0.65%
- Parasitized RBC over 100, Average ([2]; 3x 30 mg/kg p.o.): 0.44
- Parasitized RBC over 100, individual mice M1-M3 ([2]; 3x 30 mg/kg p.o.): 0.53 and 0.31 and 0.48
- Mouse survival in days, Average ([2]; 3x 30 mg/kg s.c.): 14 days
- Mouse survival in days, individual mice M1-M3 ([2]; 3x 30 mg/kg s.c.): 14 days
- % activity (reduction of parasitaemia) ([2]; 3x 30 mg/kg s.c.): 62%
- % of control ([2]; 3x 30 mg/kg s.c.): 38%
- Parasitized RBC over 100, Average ([2]; 3x 30 mg/kg s.c.): 26
- Parasitized RBC over 100, individual mice M1-M3 ([2]; 3x 30 mg/kg s.c.): 21 and 24 and 32
- Mouse survival in days, Average ([2]; 3x 100 mg/kg p.o.): 15 days
- Mouse survival in days, individual mice M1-M3 ([2]; 3x 100 mg/kg p.o.): 15 days and 17 days and 14 days
- % activity (reduction of parasitaemia) ([2]; 3x 100 mg/kg p.o.): 99.7%
- % of control ([2]; 3x 100 mg/kg p.o.): 0.30%
- Parasitized RBC over 100, Average ([2]; 3x 100 mg/kg p.o.): 0.20
- Parasitized RBC over 100, individual mice M1-M3 ([2]; 3x 100 mg/kg p.o.): 0.23 (2×) and 0.14
- morphological effects (confocal laser scanning microscopy) ([3]; 5 μM, 6–13 days): Aggregate-like degradation products of the gastrodermis occurred within the gut lumen
- time to death of worms ([3]; 10 µM): 6 days
- time to death of worms ([3]; 20 µM): 2 days
- starting concentration with negative influence on worm physiology ([3]; pairing stability, egg production, survival, bright-field microscopy): 1 μM
- IC50 ([4]; 3D7, 72 h 3H-hypoxanthine incorporation, asexual blood stages, read-out: Antiplasmodial activity IC50 Pf (3D7)): 7.4 nM

SMILES: Oc1ccccc1CNc1ccc2ccc3cccc4ccc1c2c34 [20c]
- IC50 ([4]; 3D7, non-steroid-derived analogs, read-out: IC50 on P. falciparum 3D7 asexual blood stages): 5600 nM
- melting point: 160 to 163 °C

SMILES: OC(c1cc(C(F)(F)F)nc2c(C(F)(F)F)cccc12)C1CCCCN1 (centres unmarked) [mefloquine, reference compound]
- IC50 [5]: 8 nM
- change of 405/488 nm fluorescence ratio [6]: 1.5 fold

Continued, values first:

- melting point: 168 to 169 °C
SMILES: Oc1ccccc1CNC1CCCC1 (as salt: perchlorate) [15c]

- melting point: 152 to 153 °C
SMILES: Oc1ccccc1CNC1CCCCC1 (as salt: perchlorate) [16c]

- melting point: 136 to 138.5 °C
SMILES: Oc1ccccc1CNC1CCCCCCC1 (as salt: perchlorate) [17c]

- IC50 (P. falciparum NF54; [7]): 5.5 ± 0.8 nM
- IC50 (P. falciparum NF54; [8]): 5.7 ± 0.5 nM
- IC50 (P. falciparum NF54; [9]): 4.7 ± 0.3 nM
SMILES: C[C@H]1[C@H](OC(=O)CCC(=O)O)O[C@@H]2O[C@@]3(C)CC[C@H]4[C@H](C)CC[C@@H]1[C@@]24OO3 [Artesunate]

- speed of action (IC50 shift across 24, 48, 72 h) (P. falciparum NF54): slow-acting compound
- IC50 (P. falciparum NF54; [7]): 220 ± 61 nM
- IC50 (P. falciparum NF54; [8]): 30.4 ± 7.6 nM
- IC50 (P. falciparum NF54; [9]): 15.2 ± 1.6 nM
SMILES: CCc1nc(N)nc(N)c1-c1ccc(Cl)cc1 [Pyrimethamine]
